Results taken from patent US20080261201A1, “Methods and compounds to alter virus infection” (priority 2006, published 2008).

Test system: Rac1
Experiment: HA-Rac1 incorporation into vesicular fractions of MCF-7 cells, Western blot
Format: cell-based
Conditions: IL-1β 1 ng/mL for 20 minutes
Protocol: Buoyant density centrifugation was used for subcellular fractionation and isolation of endosomes containing Nox2 activity. Cells were washed twice with ice-cold PBS and scrapped into a 1.5 mL microfuge tube using the same buffer. The cells were pelleted and resuspended in homogenization buffer (HMB) containing 0.25 M sucrose, 20 mM HEPES pH 7.4, 1 mM EDTA, and an EDTA-free protease inhibitor cocktail. The cells were homogenized using nitrogen cavitation in a cell disruption high-pressure chamber (Parr instruments, Moline, Ill.). The pressure was raised to 650-psi for 5 minutes and released suddenly. The homogenate was centrifuged at 3000×g for 15 minutes to pellet unbroken cells, nuclei, and heavy mitochondria. The heavy mitochondrial supernatant (HMS) was bottom loaded into an iodixanol discontinuous gradient in a 12.5 mL SW41Ti ultracentrifuge tube using a previously described method with modifications (Graham et al., 1994; Xia et al., 1998).
The discontinuous gradient was composed of 1.25 mL HMB without EDTA followed by bottom loading of the following % iodixanol steps sequentially with 1.0 mL 2.5%, 1.0 mL 5%, 1.5 mL 9%, 1.5 mL 14%, 2.5 mL 19%, 1.5 mL 26%, and finally the HMS in 2 mL 32%. Iodixanol concentrations were prepared fresh using a 50% iodixanol working solution (WS) diluted with HMB without EDTA. […]

IL-1β: interleukin used to stimulate MCF-7 cells
HA-Rac1 incorporation into crude vesicular fractions: significantly enhanced
